According to ChEMBL document CHEMBL6115030, “Systematic All-Hydrocarbon Stapling Analysis for Cecropin A Generates a Potent and Stable Antimicrobial Peptide” (J Med Chem, 2025):
In brackets after ≈: the same amount, converted by molar mass. Activity calls are given as the source filed them. The calls are words filed in the database; no cut-off is given here. Bridge positions count the residues as written; N and C are the ends. Square brackets hold non-standard residues; d marks the D form. Peptide text beside a SMILES is read from it. S5 = C=CCCC[C@](C)(N)C(=O)O

Tests used:
Escherichia coli [1] = assay: Induction of outer membrane synthesis related pathways in Escherichia coli assessed as change in OmpC gene expression at 12.5 uM measured after 2 hrs incubation by PCR analysis; type: functional, organism-based
Escherichia coli [2] = assay: Induction of assembly related pathways in Escherichia coli assessed as change in BamD gene expression at 12.5 uM measured after 2 hrs incubation by PCR analysis; type: functional, organism-based
Escherichia coli [3] = assay: Induction of multiple envelope stress pathway related pathways in Escherichia coli assessed as change in WcaB gene expression at 12.5 uM measured after 2 hrs incubation by PCR analysis; type: functional, organism-based
Escherichia coli [4] = assay: Induction of outer membrane synthesis related pathways in Escherichia coli assessed as change in OmpT gene expression at 12.5 uM measured after 2 hrs incubation by PCR analysis; type: functional, organism-based
[5] = Stability of the compound in human serum assessed as peptide degradation by RP-HPLC analysis; type: ADME, cell-free; conditions: read-out: T50 (converted)
Pseudomonas aeruginosa = assay: Antibacterial activity against Pandrug-resistant Pseudomonas aeruginosa assessed as inhibition of bacterial growth measured after 24 hrs by broth microdilution method; type: functional
Mus musculus = assay: In vivo anti-inflammatory efficacy in Escherichia coli intraperitoneally injected into C57BL/6 mouse peritonitis model assessed as reduction in IL-1beta level in blood at 2.5 mg/kg, ip measured after 48 hrs by ELISA; type: functional, organism-based
Escherichia coli [6] = assay: In vivo antibacterial activity against Escherichia coli intraperitoneally injected into C57BL/6 mouse peritonitis model assessed as reduction in bacterial load in blood at 2.5 mg/kg, ip measured after 48 hrs relative to control; type: functional, organism-based
Escherichia coli [7] = assay: Induction of assembly related pathways in Escherichia coli assessed as change in OmpW gene expression at 12.5 uM measured after 2 hrs incubation by PCR analysis; type: functional, organism-based
Escherichia coli [8] = assay: Antibacterial activity against Escherichia coli assessed as reduction in CFU at 5 uM measured upto 60 mins by Time-killing assay; type: functional, organism-based
[9] = Toxicity in C57BL/6 female mouse assessed as apparent inflammatory exudates ([…], neutrophiles, macrophages) in lungs at 25 mg/kg, ip measured during 14 days of study by H and E staining based analysis; type: organism-based; conditions: in vivo, 336 h, time 14 day
Escherichia coli [10] = assay: In vivo antibacterial activity against Escherichia coli intraperitoneally injected into C57BL/6 mouse peritonitis model assessed as reduction in bacterial load in liver at 2.5 mg/kg, ip measured after 48 hrs relative to control; type: functional, organism-based
Escherichia coli [11] = assay: Induction of LPS transport pathway related genes in Escherichia coli assessed as change in LptG gene expression at 12.5 uM measured after 2 hrs incubation by PCR analysis; type: functional, organism-based
Escherichia coli [12] = assay: Induction of LPS transport pathway related genes in Escherichia coli assessed as change in LptD gene expression at 12.5 uM measured after 2 hrs incubation by PCR analysis; type: functional, organism-based
[13] = Toxicity in C57BL/6 female mouse assessed as juxtaglomerular cells and interstitial fibrous tissues in kidney at 25 mg/kg, ip measured during 14 days of study by H and E staining based analysis; type: organism-based; conditions: in vivo, 336 h, time 14 day

## CC[C@H](C)[C@H](NC(=O)CNC(=O)[C@H](CC(=O)O)NC(=O)[C@H](CCCNC(=N)N)NC(=O)[C@@H](NC(=O)[C@H](CC(N)=O)NC(=O)[C@H](CCC(N)=O)NC(=O)CNC(=O)[C@@H](NC(=O)[C@H](CCCCN)NC(=O)[C@H](CCC(=O)O)NC(=O)[C@@H](NC(=O)[C@H](CCCCN)NC(=O)[C@H](CCCCN)NC(=O)[C@H](Cc1ccccc1)NC(=O)[C@H](CC(C)C)NC(=O)[C@H](CCCCN)NC(=O)[C@H](Cc1c[nH]c2ccccc12)NC(=O)[C@H](CCCCN)NC(C)=O)[C@@H](C)CC)C(C)C)[C@@H](C)CC)C(=O)N[C@H](C(=O)N[C@@H](CCCCN)C(=O)N[C@@H](C)C(=O)NCC(=O)N1CCC[C@H]1C(=O)N[C@@H](C)C(=O)N[C@H](C(=O)N[C@@H](C)C(=O)N[C@H](C(=O)N[C@H](C(=O)NCC(=O)N[C@@H](CCC(N)=O)C(=O)N[C@@H](C)C(=O)N[C@@]1(C)CCC/C=C\CCC[C@@](C)(C(N)=O)NC(=O)[C@H](C)NC(=O)[C@H]([C@@H](C)CC)NC(=O)[C@H](CCC(N)=O)NC1=O)C(C)C)C(C)C)C(C)C)[C@@H](C)CC (Ac-KWKLFKKIEKVGQNIRDGIIKAGPAVAVVGQA[S5]QIA[S5]-NH2; staple (Z) 33-37)
Escherichia coli [1]
  Activity: Active
Escherichia coli [2]
  Activity: Active
Escherichia coli [3]
  Activity: Active
Escherichia coli [4]
  Activity: Active
[5]
  half-life: 9.85 h
Pseudomonas aeruginosa
  MIC: 12.5 µM (≈ 50.8 µg/mL)
Mus musculus
  Activity: Active
Escherichia coli [6]
  Activity: Active; Compound Showed Enhanced Bacterial Elimination Than Cec-0 And Compound Showed Comparable Bacterial Elimination To Polymyxin B
Escherichia coli [7]
  Activity: Active
Escherichia coli [8]
  Activity: Active
[9]
  Activity: Non-toxic
Escherichia coli [10]
  Activity: Active; Compound Showed Enhanced Bacterial Elimination Than Cec-0 And Compound Showed Comparable Bacterial Elimination To Polymyxin B
Escherichia coli [11]
  Activity: Active
Escherichia coli [12]
  Activity: Active
[13]
  Activity: Non-toxic
